Measurements: patent US20230150986A1, “ANTAGONISTS OF THE MUSCARINIC ACETYLCHOLINE RECEPTOR M4” (Vanderbilt University, priority 2019, published 2023)

Biological target: T1, Human M4 (Homo sapiens, UniProt P08173)
T1 construct: Human or rat M4 cDNA, along with the chimeric G protein Gq,5, were transfected into Chinese hamster ovary (CHO-K1) cells; expressed in transfected cells; host or cells: CHO-K1 (M4/Gqi5/CHO)
T1 sequence (P08173 1-479): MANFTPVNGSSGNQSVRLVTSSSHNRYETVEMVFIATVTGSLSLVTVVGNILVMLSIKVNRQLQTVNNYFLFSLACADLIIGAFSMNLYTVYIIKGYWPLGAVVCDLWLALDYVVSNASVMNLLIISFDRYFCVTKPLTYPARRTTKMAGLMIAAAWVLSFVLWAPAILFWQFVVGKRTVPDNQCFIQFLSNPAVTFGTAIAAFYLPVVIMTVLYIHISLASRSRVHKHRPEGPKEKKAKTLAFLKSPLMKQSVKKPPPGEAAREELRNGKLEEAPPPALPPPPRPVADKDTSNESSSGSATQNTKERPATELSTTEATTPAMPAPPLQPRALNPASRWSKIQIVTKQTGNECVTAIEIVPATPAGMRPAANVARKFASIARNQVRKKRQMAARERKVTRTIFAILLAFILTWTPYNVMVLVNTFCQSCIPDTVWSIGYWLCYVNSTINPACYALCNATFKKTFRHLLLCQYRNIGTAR
Experiment: mAChR M4 cell-based functional assay (calcium flux, decrease of EC80 acetylcholine response)
Conditions: for Human M4 Emin: % ACh maximum at 30 μM; for IC50: CHO-K1 cells with human M4 and Gqi5, EC80 acetylcholine
Experimental: Human or rat M4 cDNA, along with the chimeric G protein Gq,5, were transfected into Chinese hamster ovary (CHO-K1) cells purchased from the American Type Culture Collection using Lipofectamine2000. M4/Gqi5/CHO cells were grown in Ham's F-12 medium containing 10% heat-inactivated fetal bovine serum (FBS), 20 mM HEPES, 500 μg/mL G^418 sulfate, and 200 μg/mL Hygromycin B.
For high throughput measurement of agonist-evoked increases in intracellular calcium, CHO-K1 cells stably expressing muscarinic receptors were plated in growth medium lacking G418 and hygromycin at 15,000 cells/20 μL/well in Greiner 384-well black-walled, tissue culture (TC)-treated, clear-bottom plates (VWR). Cells were incubated overnight at 37° C. and 5% CO2. The next day, cells were washed using an ELX 405 (BioTek) with assay buffer; the final volume was then aspirated to 20 μL. Next, 20 μL of a 2.3 μM stock of Fluo-4/acetoxymethyl ester (Invitrogen, Carlsbad, Calif.), prepared as a 2.3 mM stock in DMSO and mixed in a 1:1 ratio with 10% (w/v) Pluronic F-127 and diluted in assay buffer, was added to the wells and the cell plates were incubated for 50 min at 37° C. and 5% CO2. Dye was removed by washing with the ELX 405 and the final volume was aspirated to 20 μL. Compound master plates were formatted in a 10 point concentration-response curve (CRC) format (1:3 dilutions) in 100% DMSO with a starting concentration of 10 or 1 mM using a BRAVO liquid handler (Agilent). Test compound CRCs were then transferred to daughter plates (240 nL) using the Echo acoustic plate reformatter (Labcyte, Sunnyvale, Calif.) and then diluted into assay buffer (40 μL) to a 2× stock using a Thermo Fisher Combi (Thermo Fisher Scientific, Waltham, Mass.).
Calcium flux was measured using the Functional Drug Screening System (FDSS) 6000 or 7000 (Hamamatsu Corporation, Tokyo, Japan) as an increase in the fluorescent static ratio. Compounds were applied to cells (20 μL, 2×) using the automated system of the FDSS at 2 seconds into the protocol and the data were collected at 1 Hz. At 143 s, 10 μL of an EC20 concentration of the muscarinic receptor agonist acetylcholine was added (5×), followed by the addition of […] of an EC80 concentration of acetylcholine at the 268 s time point (5×). Agonist activity was analyzed as a concentration-dependent increase in calcium mobilization upon compound addition. Positive allosteric modulator activity was analyzed as a concentration-dependent increase in the EC2o acetylcholine response. Antagonist activity was analyzed as a concentration-dependent decrease in the EC80 acetylcholine response; for the purposes of the tables herein, an IC50 (inhibitory concentration 50) was calculated as a concentration-dependent decrease of the response elicited by an EC80 concentration of acetylcholine. Concentration-response curves were generated using a four-parameter logistical equation in XLFit curve fitting software (IDBS, Bridgewater, N.J.) for Excel (Microsoft, Redmond, Wash.) or Prism (GraphPad Software, Inc., San Diego, Calif.) or the Dotmatics software platform (Dotmatics, Bishop's Stortford, UK).
Compounds were synthesized as described above. Activity (IC50 and Emin) was determined in the mAChR M4 cell-based functional assay as described above and the data are shown in Table 2.

| SMILES | Human M4 Emin | IC50 |
| --- | --- | --- |
| Fc1cc(F)c(F)c(-c2ccc(N[C@@H]3C[C@H]4CN(CC5CCOCC5)C[C@H]4[C@@H]3F)nn2)c1 (racemic) [Compound 86, (3aR,4R,5S,6aS)-4-fluoro-2-((tetrahydro-2H-pyran-4-yl)methyl)-N-(6-(2,3,5-trifluorophenyl)pyridazin-3-yl)octahydrocyclopenta[c]pyrrol-5-amine and (3aS,4S,5R,6aR)-4-fluoro-2-((tetrahydro-2H-pyran-4-yl)methyl)-N-(6-(2,3,5-trifluorophenyl)pyridazin-3-yl)octahydrocyclopenta[c]pyrrol-5-amine] | 2% | 3.1 nM |
| C[C@]12C[C@H](Nc3ccc(-c4cc(F)cc(F)c4F)nn3)C[C@H]1CN(CC1CCOCC1)C2 (racemic) [Compound 88, (3aR,5S,6aS)-3a-methyl-2-((tetrahydro-2H-pyran-4-yl)methyl)-N-(6-(2,3,5-trifluorophenyl)pyridazin-3-yl)octahydrocyclopenta[c]pyrrol-5-amine and (3aS,5R,6aR)-3a-methyl-2-((tetrahydro-2H-pyran-4-yl)methyl)-N-(6-(2,3,5-trifluorophenyl)pyridazin-3-yl)octahydrocyclopenta[c]pyrrol-5-amine] | 17% | 1.2 nM |
| Fc1cc(F)c(F)c(-c2ccc(N[C@H]3C[C@@H]4CN(CC5CCCOC5)C[C@@H]4C3)nn2)c1 (single isomer, unassigned) [Compound 24] | 3% | 13.7 nM |
| Fc1cc(F)c(F)c(-c2ccc(N[C@H]3C[C@@H]4CN(CC5CCCOC5)C[C@@H]4C3)nn2)c1 (single isomer, unassigned) [Compound 25] | 3% | 5.7 nM |
| Fc1cc(F)c(F)c(-c2ccc(N[C@H]3C[C@@H]4CN(CC5CCCCO5)C[C@@H]4C3)nn2)c1 (single isomer, unassigned) [Compound 26] | 3% | 1.24 nM |
| Fc1cc(F)c(F)c(-c2ccc(N[C@H]3C[C@@H]4CN(CC5CCCCO5)C[C@@H]4C3)nn2)c1 (single isomer, unassigned) [Compound 27] | 4% | 2.14 nM |
| Fc1cc(F)c(F)c(-c2ccc(N[C@H]3C[C@@H]4CN(CC5CCCCC5)C[C@@H]4C3)nn2)c1 [Compound 3, (3aR,5s,6aS)-2-(cyclohexylmethyl)-N-(6-(2,3,5-trifluorophenyl)pyridazin-3-yl)octahydrocyclopenta[c]pyrrol-5-amine] | 3% | 57.5 nM |
| Fc1cc(F)c(F)c(-c2ccc(N[C@H]3C[C@@H]4CN(CCC5CCOCC5)C[C@@H]4C3)nn2)c1 [Compound 4, (3aR,5s,6aS)-2-(2-(tetrahydro-2H-pyran-4-yl)ethyl)-N-(6-(2,3,5-trifluorophenyl)pyridazin-3-yl)octahydrocyclopenta[c]pyrrol-5-amine] | 4% | 3.09 nM |
| Fc1cc(F)c(F)c(-c2ccc(N[C@H]3C[C@@H]4CN(C5CCC6(CCOCC6)CC5)C[C@@H]4C3)nn2)c1 [Compound 5, (3aR,5s,6aS)-2-(3-oxaspiro[5.5]undecan-9-yl)-N-(6-(2,3,5-trifluorophenyl)pyridazin-3-yl)octahydrocyclopenta[c]pyrrol-5-amine] | 3% | 13.5 nM |
| Fc1cc(F)c(F)c(-c2ccc(N[C@H]3C[C@@H]4CN(C5CCCCCC5)C[C@@H]4C3)nn2)c1 [Compound 6, (3aR,5s,6aS)-2-cycloheptyl-N-(6-(2,3,5-trifluorophenyl)pyridazin-3-yl)octahydrocyclopenta[c]pyrrol-5-amine] | 3% | 20.9 nM |
| CC1(C)CC(N2C[C@H]3C[C@H](Nc4ccc(-c5cc(F)cc(F)c5F)nn4)C[C@H]3C2)CC(C)(C)O1 [Compound 7, (3aR,5s,6aS)-2-(2,2,6,6-tetramethyltetrahydro-2H-pyran-4-yl)-N-(6-(2,3,5-trifluorophenyl)pyridazin-3-yl)octahydrocyclopenta[c]pyrrol-5-amine] | 4% | 215 nM |
| OC1(CN2C[C@H]3C[C@H](Nc4ccc(-c5cc(F)cc(F)c5F)nn4)C[C@H]3C2)CCCCC1 [Compound 9, 1-(((3aR,5s,6aS)-5-((6-(2,3,5-trifluorophenyl)pyridazin-3-yl)amino)hexahydrocyclopenta[c]pyrrol-2(1H)-yl)methyl)cyclohexan-1-ol] | 3% | 6.09 nM |
| CC(C1CCOCC1)N1C[C@H]2C[C@H](Nc3ccc(-c4cc(F)cc(F)c4F)nn3)C[C@H]2C1 (stereo partly drawn) [Compound 10, (3aR,5s,6aS)-2-(1-(tetrabydro-2H-pyran-4-yl)ethyl)-N-(6-(2,3,5-trifluorophenyl)pyridazin-3-yl)octahydrocyclopenta[c]pyrrol-5-amine] | 4% | 5.7 nM |
| CC1(CN2C[C@H]3C[C@H](Nc4ccc(-c5cc(F)cc(F)c5F)nn4)C[C@H]3C2)CCOCC1 [Compound 11, (3aR,5s,6aS)-2-((4-methyltetrahydro-2H-pyran-4-yl)methy)-N-(6-(2,3,5-trifluorophenyl)pyridazin-3-yl)octahydrocyclopenta[c]pyrrol-5-amine] | 3% | 4.63 nM |
| [2H]C(C)(C1CCOCC1)N1C[C@H]2C[C@H](Nc3ccc(-c4cc(F)cc(F)c4F)nn3)C[C@H]2C1 (stereo partly drawn) [Compound 12, (3aR,5s,6aS)-2-(1-(tetrahydro-2H-pyran-4-yl)ethyl-1-d)-N-(6-(2,3,5-trifluorophenyl)pyridazin-3-yl)octahydrocyclopenta[c]pyrrol-5-amine] | 3% | 8.64 nM |
| CC(c1ccccn1)N1C[C@H]2C[C@H](Nc3ccc(-c4cc(F)cc(F)c4F)nn3)C[C@H]2C1 (stereo partly drawn) [Compound 13, (3aR,5s,6aS)-2-(1-(pyridin-2-yl)ethyl)-N-(6-(2,3,5-trifluorophenyl)pyridazin-3-yl)octahydrocyclopenta[c]pyrrol-5-amine] | 3% | 74.6 nM |
| [2H]C([2H])(N1C[C@H]2C[C@H](Nc3ccc(-c4cc(F)cc(F)c4F)nn3)C[C@H]2C1)C1(C)CCOCC1 [Compound 14, (3aR,5s,6aS)-2-((4-methyltetrahydro-2H-pyran-4-yl)methyl-d2)-N-(6-(2,3,5-trifluorophenyl)pyridazin-3-yl)octahydrocyclopenta[c]pyrrol-5-amine] | 2% | 6.13 nM |
| [2H]C(C)(c1ccccn1)N1C[C@H]2C[C@H](Nc3ccc(-c4cc(F)cc(F)c4F)nn3)C[C@H]2C1 (stereo partly drawn) [Compound 15, (3aR,5s,6aS)-2-(1-(pyridin-2-yl)ethyl-1-d)-N-(6-(2,3,5-trifluorophenyl)pyridazin-3-yl)octahydrocyclopenta[c]pyrrol-5-amine] | 2% | 95.2 nM |
| Cc1cccc(CN2C[C@H]3C[C@H](Nc4ccc(-c5cc(F)cc(F)c5F)nn4)C[C@H]3C2)n1 [Compound 16, (3aR,5s,6aS)-2-((6-methylpyridin-2-yl)methyl)-N-(6-(2,3,5-trifluorophenyl)pyridazin-3-yl)octahydrocyclopenta[c]pyrrol-5-amine] | 3% | 38 nM |
